Experimental data reported in ChEMBL document CHEMBL1201862, “PubChem BioAssay data set” (2004).
The source made the active and inactive calls.

Tests used:
[1] = biological target: Troponin, cardiac muscle (Homo sapiens, UniProt P19429+P45379+P63316); experiment: Fluorescence-based biochemical high throughput dose response assay for activators of the calcium sensitivity of cardiac Regulated Thin Filaments (RTF). [Related pubchem assays (depositor defined):AID493008, AID493018, AID504382, AID504383]; format: protein-complex assay
[2] = biological target: G-protein coupled receptor 55 (Homo sapiens, UniProt Q9Y2T6); experiment: GPR55 agonists via beta-arrestin recruitment, primary screen, imaging, U2OS cells, beta-arrestin-GFP redistribution (AID 1961); format: functional
[3] = biological target: T1, Short transient receptor potential channel 4 (Mus musculus, UniProt Q9QUQ5); experiment: mouse TRPC4 channel inhibitors, dose response, cell-based, HEK293 TRPC4/mu-opioid, Fluo-4 calcium (AID 434942); format: functional;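 further: potency of inhibitors blocking the TRPC4 calcium response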
T1 sequence (Q9QUQ5 whole entry): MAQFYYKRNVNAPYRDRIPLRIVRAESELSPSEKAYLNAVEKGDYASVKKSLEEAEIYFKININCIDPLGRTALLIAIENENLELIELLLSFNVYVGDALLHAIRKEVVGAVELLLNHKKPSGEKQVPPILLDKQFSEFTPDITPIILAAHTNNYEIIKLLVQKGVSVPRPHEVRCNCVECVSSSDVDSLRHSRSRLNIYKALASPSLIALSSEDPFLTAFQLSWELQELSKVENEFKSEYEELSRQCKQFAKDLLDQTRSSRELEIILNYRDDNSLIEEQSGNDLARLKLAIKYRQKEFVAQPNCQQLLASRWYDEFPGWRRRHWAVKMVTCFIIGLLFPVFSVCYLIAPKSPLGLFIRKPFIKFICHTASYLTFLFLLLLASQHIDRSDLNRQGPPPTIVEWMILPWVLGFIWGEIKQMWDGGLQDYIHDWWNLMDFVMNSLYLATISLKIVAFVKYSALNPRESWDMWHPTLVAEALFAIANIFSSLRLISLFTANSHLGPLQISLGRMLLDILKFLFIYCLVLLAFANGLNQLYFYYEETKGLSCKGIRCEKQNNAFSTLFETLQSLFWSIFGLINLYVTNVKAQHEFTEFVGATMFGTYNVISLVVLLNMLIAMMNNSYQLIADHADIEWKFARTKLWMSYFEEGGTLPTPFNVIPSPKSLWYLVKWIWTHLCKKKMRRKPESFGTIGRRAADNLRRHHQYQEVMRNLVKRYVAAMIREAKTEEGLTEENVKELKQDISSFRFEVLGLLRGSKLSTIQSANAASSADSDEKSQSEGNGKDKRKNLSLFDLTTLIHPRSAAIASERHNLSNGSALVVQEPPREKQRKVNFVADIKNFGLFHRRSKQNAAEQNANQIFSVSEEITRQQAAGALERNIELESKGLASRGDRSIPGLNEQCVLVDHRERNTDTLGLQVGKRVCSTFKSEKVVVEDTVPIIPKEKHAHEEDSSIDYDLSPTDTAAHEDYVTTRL

[4] = HEp-2 cell cytotoxicity, dose response, cytotoxicity control for RSV inhibitor project, HTS (AID 2410); format: functional; conditions: human respiratory syncytial virus
[5] = biological target: T2, Heat shock factor protein 1 (Mus musculus, UniProt P38532); experiment: inhibition of MG132-induced HSE-luciferase signal, confirmation, cell-based, NIH3T3, luminescence, dose retest (AID 2382); format: functional;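 further: NIH3T3 fibroblasts with HSF1-driven luciferase reporter stressed by proteasome inhibitor MG132; luminescence from HSF1-driven luciferase expression after 8 hours of MG132 stress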
T2 sequence (P38532 whole entry): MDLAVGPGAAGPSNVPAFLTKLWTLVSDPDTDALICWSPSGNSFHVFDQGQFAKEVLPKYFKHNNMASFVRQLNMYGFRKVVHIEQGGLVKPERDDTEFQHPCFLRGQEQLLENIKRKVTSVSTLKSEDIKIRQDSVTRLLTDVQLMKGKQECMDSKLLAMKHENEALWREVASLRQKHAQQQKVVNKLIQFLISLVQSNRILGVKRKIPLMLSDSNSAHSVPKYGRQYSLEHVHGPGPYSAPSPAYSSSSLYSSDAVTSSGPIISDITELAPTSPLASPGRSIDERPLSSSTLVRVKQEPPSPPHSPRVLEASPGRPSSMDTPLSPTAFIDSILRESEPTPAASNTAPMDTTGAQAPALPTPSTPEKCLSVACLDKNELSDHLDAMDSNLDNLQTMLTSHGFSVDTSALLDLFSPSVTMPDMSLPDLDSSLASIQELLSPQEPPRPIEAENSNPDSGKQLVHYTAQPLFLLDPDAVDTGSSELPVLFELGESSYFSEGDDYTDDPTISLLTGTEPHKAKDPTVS

[6] = biological target: Luciferin 4-monooxygenase (Photinus pyralis, UniProt P08659); experiment: firefly luciferase enzyme inhibitors, dose response, biochemical, luminescence (AID 1891)
[7] = biological target: Nucleotide-binding oligomerization domain-containing protein 2 (Homo sapiens, UniProt Q9HC29); experiment: NOD2 signaling inhibitors, cell-based, luminescence, uHTS, HEK293 (AID 1566); format: functional
[8] = biological target: Paired box protein Pax-8 (Homo sapiens, UniProt Q06710); experiment: inhibitors of PAX8-driven TPO luciferase reporter, dose response, RMG-I cells, cherry-pick (AID 687027); format: functional, cell-based;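 further: luciferase reporter driven by Pax8 target thyroperoxidase promoter measured by SteadyGlo luminescence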
[9] = biological target: Glyceraldehyde-3-phosphate dehydrogenase (Homo sapiens, UniProt P04406)
[10] = biological target: T3, Alkaline phosphatase, tissue-nonspecific isozyme (Homo sapiens, UniProt P05186); experiment: human TNAP enzyme inhibitors, SAR follow-up, biochemical, luminescent, dose response (AID 1056)
T3 sequence (P05186 whole entry): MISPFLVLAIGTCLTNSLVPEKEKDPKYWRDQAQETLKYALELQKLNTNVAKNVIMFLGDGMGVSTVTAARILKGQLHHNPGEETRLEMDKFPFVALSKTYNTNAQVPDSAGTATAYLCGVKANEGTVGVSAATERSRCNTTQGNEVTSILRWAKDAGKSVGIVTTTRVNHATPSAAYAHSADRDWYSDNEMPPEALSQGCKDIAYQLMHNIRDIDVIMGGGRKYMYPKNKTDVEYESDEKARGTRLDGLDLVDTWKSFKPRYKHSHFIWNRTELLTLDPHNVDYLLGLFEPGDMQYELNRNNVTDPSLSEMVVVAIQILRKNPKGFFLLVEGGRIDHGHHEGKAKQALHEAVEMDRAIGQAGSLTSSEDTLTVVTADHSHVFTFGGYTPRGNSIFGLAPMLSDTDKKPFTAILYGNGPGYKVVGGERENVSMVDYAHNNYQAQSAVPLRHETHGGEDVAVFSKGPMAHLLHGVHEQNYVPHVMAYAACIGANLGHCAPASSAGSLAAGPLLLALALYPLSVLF

[11] = biological target: Eukaryotic translation initiation factor 4E (Mus musculus, UniProt P63073); experiment: eIF4E–eIF4G protein interaction inhibitors, dose response, biochemical, TR-FRET (AID 855); format: functional;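 further: potency for disrupting eIF4E binding to eIF4GI seen as loss of FRET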
[12] = cytotoxicity in HEK-293T cells, dose response, cytotoxicity control for BCR NF-kB inhibitor project, luminescence, B-cell screen hits (AID 489021); format: functional, cell-based;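 further: HEK-293T cells carrying an NF-kB luciferase reporter; cells exposed to compound for about 14 hours before viability readout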
[13] = system: HEK293; experiment: cells; format: functional, cell-based; conditions: Homo sapiens
[14] = biological target: T4, Nuclear receptor subfamily 0 group B member 1 (Homo sapiens, UniProt P51843); experiment: Luminescence-based cell-based high throughput dose response assay for inhibitors of the orphan nuclear receptor subfamily 0, group B, member 1 (DAX1; NR0B1). [Related pubchem assays (depositor defined):AID504766, AID504790]; format: functional
T4 sequence (P51843 whole entry): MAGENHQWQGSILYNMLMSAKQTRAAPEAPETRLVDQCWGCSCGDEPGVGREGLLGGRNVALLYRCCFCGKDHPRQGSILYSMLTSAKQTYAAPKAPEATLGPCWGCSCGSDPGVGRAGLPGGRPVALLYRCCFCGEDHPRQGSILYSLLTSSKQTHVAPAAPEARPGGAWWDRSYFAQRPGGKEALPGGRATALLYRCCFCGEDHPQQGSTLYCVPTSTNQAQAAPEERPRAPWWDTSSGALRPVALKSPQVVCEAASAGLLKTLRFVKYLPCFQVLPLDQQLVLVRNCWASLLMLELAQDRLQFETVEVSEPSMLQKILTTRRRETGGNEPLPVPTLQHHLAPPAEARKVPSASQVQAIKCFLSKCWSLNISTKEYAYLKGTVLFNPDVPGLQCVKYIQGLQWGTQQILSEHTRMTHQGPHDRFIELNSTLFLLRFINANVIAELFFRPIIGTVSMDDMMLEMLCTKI

[15] = biological target: T5, Ubiquitin-conjugating enzyme E2 N (Homo sapiens, UniProt P61088); format: functional;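 further: Dose-response confirmation in a TR-FRET assay detecting UBC13-driven polyubiquitin chain formation, inhibition measured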
T5 sequence (P61088 whole entry): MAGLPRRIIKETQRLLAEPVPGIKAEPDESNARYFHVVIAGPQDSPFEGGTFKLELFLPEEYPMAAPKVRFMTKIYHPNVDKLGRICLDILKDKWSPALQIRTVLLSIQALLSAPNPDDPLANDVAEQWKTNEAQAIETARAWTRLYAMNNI

[16] = NIH-3T3 fibroblast cytotoxicity, dose response, cytotoxicity control, cell-based, fluorescence, Alamar Blue, secondary assay (AID 2327); format: functional;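 further: NIH-3T3 mouse fibroblasts cultured with fluconazole at 8 µg/mL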
[17] = inhibitors of firefly luciferase expression or activity, dose response, H4 neuroglioma cells, luminescence (AID 1990); format: functional, cell-based
[18] = system: Streptococcus sp. 'group A'; experiment: growth inhibition of control SK(-) GAS strain, dose response, counter-screen for streptokinase expression inhibitor project, luminescence, kanamycin, BacTiterGlo, confirmation (AID 1900); format: functional, organism-based
[19] = Luminescence Cell-Based Dose Response HTS to Identify Inhibitors of 5'UTR Stem-Loop Driven Prion Protein mRNA Translation in H4 Neuroglioblastoma Cells. [Related pubchem assays: 1827 (Project Summary), 1813 (Primary HTS)]; format: functional
[20] = inhibitors of SNCA 5'UTR-driven reporter translation, confirmation, H4 neuroglioma cells, luminescence (AID 1988); format: functional, cell-based
[21] = biological target: T6, Streptokinase A (Streptococcus pyogenes serotype M1, UniProt P10520); experiment: S. pyogenes streptokinase expression inhibitors, potency, dose response, plasminogen activation absorbance, OD405 (AID 1914); format: functional, Streptococcus pyogenes M1 GAS;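 further: secreted streptokinase activity via plasminogen activation per viability signal from cell pellet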
T6 sequence (P10520 whole entry): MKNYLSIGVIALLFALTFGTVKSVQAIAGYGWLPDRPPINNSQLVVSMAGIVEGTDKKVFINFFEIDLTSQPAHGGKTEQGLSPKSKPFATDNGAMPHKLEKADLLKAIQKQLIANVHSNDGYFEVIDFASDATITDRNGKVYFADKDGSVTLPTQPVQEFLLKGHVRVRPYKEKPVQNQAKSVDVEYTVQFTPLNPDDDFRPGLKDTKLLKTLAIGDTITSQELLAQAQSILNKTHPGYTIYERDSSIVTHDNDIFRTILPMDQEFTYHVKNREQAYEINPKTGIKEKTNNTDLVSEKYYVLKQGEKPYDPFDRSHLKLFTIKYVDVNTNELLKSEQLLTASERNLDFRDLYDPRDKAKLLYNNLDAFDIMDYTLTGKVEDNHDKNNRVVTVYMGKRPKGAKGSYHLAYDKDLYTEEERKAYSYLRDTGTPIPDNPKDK

[22] = C. albicans growth with fluconazole, confirmation, fluorescence, retest (AID 2467); format: functional, cell-based
[23] = system: Streptococcus; experiment: Group A Streptococcus viability loss, dose response, counter-screen for streptokinase expression inhibitor project, luminescence, BacTiterGlo (AID 1915); format: functional, organism-based;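 further: potency for reduction of bacterial viability or growth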
[24] = biological target: Nonstructural protein 1 (Influenza A virus, UniProt Q194T2); format: functional, Influenza A virus (A/California/07/2009(H1N1))
[25] = system: INS1; experiment: beta cell apoptosis inhibitors, cytokine rescue, dose response, luminescence, retest (AID 449756); format: functional, cell-based; conditions: Rattus norvegicus;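 further: cell death triggered by IL-1 beta plus TNF-alpha plus IFN-gamma mixture; protective hits raise ATP signal compared with cytokine alone wells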

With `S=c1[nH]nc(-c2ccc(Cl)cc2)n1-c1ccc2c(c1)OCCO2` the EC50 [1] was > 71.5 µM (inactive).

For `CCN(CC)C(=O)CC(c1ccc(N(C)C)cc1)c1c(OC)cc(OC)c2c(-c3ccccc3)cc(=O)oc12` (centres undefined), the EC50 [2] was 2.74 µM (active).

For `Oc1[nH]nc(C(F)(F)F)c1/C=N/Cc1ccccc1Cl`, the EC50 [1] was > 71.4 µM (inactive).

With `N=c1sccn1CC(=O)Nc1ccccc1Oc1ccccc1` the EC50 [3] was 5.96 µM (active).

With `Oc1c(Cl)cc(Cl)cc1/C=N/c1ccccc1N1CCCC1` the CC50 [4] was 20.9 µM (active) and the EC50 [2] was > 32 µM (inactive).

In the case of `COc1ccc(N(Cc2cc3cc(OC)ccc3[nH]c2=O)S(=O)(=O)c2ccc(NC(C)=O)cc2)cc1`, the EC50 [5] was 0.309 µM (active), the EC50 [6] was > 112 µM (not active) and the EC50 [7] was > 20 µM (inactive). The AC50 [8] was 1.29 µM (active).

With `O=S(=O)(Nc1cccnc1)c1ccccc1OC(F)(F)F` the IC50 [9] was > 100 µM (not active) and the IC50 [10] was > 100 µM (inactive).

For `COc1ccccc1NS(=O)(=O)c1ccc(NN=C2CCCC2)c([N+](=O)[O-])c1`, the IC50 [11] was > 64 µM (inactive).

For `Cc1ccc(Nc2cc(C)nc3ccc(C)cc23)cc1`, the CC50 [4] was 45.9 µM (active) and the EC50 [3] was 1.5 µM (active).

For `Sc1nnc(-c2ccco2)n1/N=C/c1ccc(Cl)cc1Cl`, the IC50 [11] was > 64 µM (inactive).

In the case of `CC(C)C[C@@H](CSc1ccccc1)N1CCN(CCc2ccccc2)CCC1=O`, the EC50 [2] was 6.56 µM (active).

In the case of `COc1cc(CNC2CCCC2)c(Br)cc1OC1CCCC1`, the EC50 [3] was 0.0373 µM (active).

With `Cc1ccc2cc(CN(CCCN3CCOCC3)C(c3nnnn3Cc3ccco3)C(C)C)c(O)nc2c1C` (centres undefined) the EC50 [3] was 0.473 µM (active).

With `Cn1c(=O)n(C)c2cc(C(=O)Nc3ccc4c(c3)OCO4)ccc21` the IC50 [12] was > 80 µM (inactive), the IC50 [13] was > 67.5 µM (inactive) and the IC50 [14] was 4.57 µM (active).

With `Cc1ccc(-c2csc(NC(=O)CSc3nc4ccccc4c(=O)n3CCCN(C)C)n2)cc1` the IC50 [15] was > 20 µM (inactive) and the IC50 [11] was 50 µM (inactive).

For `COc1cccc(/C=N/Nc2cc(N3CCOCC3)ncn2)c1O`, the EC50 [16] was > 150 µM (inactive), the EC50 [17] was 8.79 µM (active) and the EC50 [18] was 9.07 µM (active). The EC50 [19] was 4.01 µM (active), the EC50 [20] was 4.5 µM (active) and the EC50 [21] was > 150 µM (not active). The EC50 [22] was 5.78 µM (active), the EC50 [23] was 9.45 µM (active) and the IC50 [24] was 5.96 µM (active). For the same molecule, the AC50 [25] was 3.04 µM (active).
